Patent publication US20260070903A1, “NOVEL PYRIDO[3,4-D]PYRIMIDIN-8-ONE DERIVATIVE HAVING PROTEIN KINASE INHIBITORY ACTIVITY, AND PHARMACEUTICAL COMPOSITION FOR PREVENTING, ALLEVIATING, OR TREATING CANCER, COMPRISING SAME” (KOREA INSTITUTE OF SCIENCE AND TECHNOLOGY, priority 2019, published 2026)

What was measured:
[1] = target: RAF1 (Homo sapiens, UniProt P04049); test: Kinase panel biochemical assay, RAF1; conditions: single concentration of 1 μM, read-out: percent inhibition of kinase
Procedure: (§1) As a test compound, Compound No. 55 was used. The percent inhibition of each kinase when treated with the test compound at a single concentration of 1 μM was measured, and the residual enzyme activity values (%) of the kinases were calculated. Kinases whose calculated residual enzyme activity values (%) was 30% or less (i.e., kinases inhibited by 70% or more) are as follows: […]

[2] = target: RET (Homo sapiens, UniProt P07949); test: Kinase panel biochemical assay, RET; conditions: single concentration of 1 μM, read-out: percent inhibition of kinase
Procedure: as §1

[3] = target: FYN (Homo sapiens, UniProt P06241); test: Kinase panel biochemical assay, FYN; conditions: single concentration of 1 μM, read-out: percent inhibition of kinase
Chain of FYN (P06241 whole entry): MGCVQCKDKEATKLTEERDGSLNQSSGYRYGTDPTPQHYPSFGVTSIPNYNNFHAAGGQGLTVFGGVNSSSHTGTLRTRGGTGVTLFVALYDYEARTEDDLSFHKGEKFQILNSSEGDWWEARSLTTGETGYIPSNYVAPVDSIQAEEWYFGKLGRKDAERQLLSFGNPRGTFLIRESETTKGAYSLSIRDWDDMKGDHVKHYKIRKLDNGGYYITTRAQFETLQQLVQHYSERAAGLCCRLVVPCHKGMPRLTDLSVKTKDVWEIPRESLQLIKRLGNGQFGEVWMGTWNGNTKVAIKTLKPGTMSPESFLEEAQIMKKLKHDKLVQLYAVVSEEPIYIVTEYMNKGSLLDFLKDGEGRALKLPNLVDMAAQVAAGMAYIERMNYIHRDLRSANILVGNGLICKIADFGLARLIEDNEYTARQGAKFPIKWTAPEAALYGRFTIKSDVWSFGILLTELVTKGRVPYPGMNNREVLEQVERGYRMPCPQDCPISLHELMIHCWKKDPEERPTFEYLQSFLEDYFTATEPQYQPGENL
Procedure: as §1

[4] = target: EPHB3 (Homo sapiens, UniProt P54753); test: Kinase panel biochemical assay, EPHB3; conditions: single concentration of 1 μM, read-out: percent inhibition of kinase
Chain of EPHB3 (P54753 34-998): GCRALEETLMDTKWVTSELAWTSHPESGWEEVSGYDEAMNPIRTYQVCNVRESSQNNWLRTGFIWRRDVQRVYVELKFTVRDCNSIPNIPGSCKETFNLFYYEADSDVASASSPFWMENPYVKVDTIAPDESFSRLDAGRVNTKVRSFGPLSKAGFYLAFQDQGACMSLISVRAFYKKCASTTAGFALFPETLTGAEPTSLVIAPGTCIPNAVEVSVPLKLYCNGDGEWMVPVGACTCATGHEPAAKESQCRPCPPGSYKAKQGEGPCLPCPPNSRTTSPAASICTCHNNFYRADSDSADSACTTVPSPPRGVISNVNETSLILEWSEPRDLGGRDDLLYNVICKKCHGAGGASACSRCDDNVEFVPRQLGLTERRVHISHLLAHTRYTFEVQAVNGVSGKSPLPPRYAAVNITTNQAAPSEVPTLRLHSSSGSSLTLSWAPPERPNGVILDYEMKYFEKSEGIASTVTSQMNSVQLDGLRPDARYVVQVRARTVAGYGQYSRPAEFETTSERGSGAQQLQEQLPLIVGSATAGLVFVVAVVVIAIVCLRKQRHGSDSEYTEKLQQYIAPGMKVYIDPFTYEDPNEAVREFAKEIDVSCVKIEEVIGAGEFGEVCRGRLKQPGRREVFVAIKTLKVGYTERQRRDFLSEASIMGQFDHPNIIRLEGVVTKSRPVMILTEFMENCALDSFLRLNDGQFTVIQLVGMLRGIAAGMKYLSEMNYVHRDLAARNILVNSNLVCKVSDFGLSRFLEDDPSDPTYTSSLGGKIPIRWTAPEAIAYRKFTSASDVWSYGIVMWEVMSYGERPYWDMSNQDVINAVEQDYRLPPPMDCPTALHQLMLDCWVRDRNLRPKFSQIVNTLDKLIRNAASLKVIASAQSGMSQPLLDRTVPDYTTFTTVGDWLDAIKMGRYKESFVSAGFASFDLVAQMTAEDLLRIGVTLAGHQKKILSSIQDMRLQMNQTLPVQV
Procedure: as §1

[5] = target: LYNB (Homo sapiens, UniProt P07948); test: Kinase panel biochemical assay, LYNB; conditions: single concentration of 1 μM, read-out: percent inhibition of kinase
Procedure: as §1

[6] = target: ABL1 (Homo sapiens, UniProt P00519); test: Kinase panel biochemical assay, ABL1; conditions: single concentration of 1 μM, read-out: percent inhibition of kinase
Procedure: as §1

[7] = target: T1, GCK (Homo sapiens, UniProt Q12851); test: Inhibitory activity against GCK kinase (IC50); type: biochemical
T1 sequence (Q12851 1-820): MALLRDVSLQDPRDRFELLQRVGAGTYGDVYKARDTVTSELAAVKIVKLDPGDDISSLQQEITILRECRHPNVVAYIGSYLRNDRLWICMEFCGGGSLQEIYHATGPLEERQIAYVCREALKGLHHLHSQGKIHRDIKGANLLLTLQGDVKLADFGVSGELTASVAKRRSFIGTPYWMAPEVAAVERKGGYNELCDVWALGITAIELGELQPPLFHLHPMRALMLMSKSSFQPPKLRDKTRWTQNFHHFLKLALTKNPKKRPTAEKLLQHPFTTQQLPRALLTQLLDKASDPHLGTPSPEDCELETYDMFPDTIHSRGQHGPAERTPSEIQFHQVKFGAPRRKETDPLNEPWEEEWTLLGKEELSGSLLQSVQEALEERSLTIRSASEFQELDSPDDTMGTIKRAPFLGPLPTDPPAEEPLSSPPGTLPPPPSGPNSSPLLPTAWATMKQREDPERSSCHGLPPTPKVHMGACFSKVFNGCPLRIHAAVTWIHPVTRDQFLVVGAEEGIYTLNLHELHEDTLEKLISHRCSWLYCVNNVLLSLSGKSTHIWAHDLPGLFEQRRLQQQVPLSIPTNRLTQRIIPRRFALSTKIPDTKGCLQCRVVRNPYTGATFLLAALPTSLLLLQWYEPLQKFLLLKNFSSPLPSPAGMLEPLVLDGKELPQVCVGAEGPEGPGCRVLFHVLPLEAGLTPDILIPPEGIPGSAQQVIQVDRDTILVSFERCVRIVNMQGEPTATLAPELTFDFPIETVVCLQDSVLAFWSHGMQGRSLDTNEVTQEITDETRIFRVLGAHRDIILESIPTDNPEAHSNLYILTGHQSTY
Procedure: The inhibitory activities of the compounds of the present disclosure against two kinases, GCK and ACK1, were measured, and the IC50 values thereof were calculated.

[8] = target: PDGFRb (Homo sapiens, UniProt P09619); test: Kinase panel biochemical assay, PDGFRb; conditions: single concentration of 1 μM, read-out: percent inhibition of kinase
Procedure: as §1

[9] = target: CSK (Homo sapiens, UniProt P41240); test: Kinase panel biochemical assay, CSK; conditions: single concentration of 1 μM, read-out: percent inhibition of kinase
Procedure: as §1

[10] = target: BLK (Homo sapiens, UniProt P51451); test: Kinase panel biochemical assay, BLK; conditions: single concentration of 1 μM, read-out: percent inhibition of kinase
Procedure: as §1

[11] = target: PDGFRa (Homo sapiens, UniProt P16234); test: Kinase panel biochemical assay, PDGFRa; conditions: single concentration of 1 μM, read-out: percent inhibition of kinase
Chain of PDGFRa (P16234 24-1089): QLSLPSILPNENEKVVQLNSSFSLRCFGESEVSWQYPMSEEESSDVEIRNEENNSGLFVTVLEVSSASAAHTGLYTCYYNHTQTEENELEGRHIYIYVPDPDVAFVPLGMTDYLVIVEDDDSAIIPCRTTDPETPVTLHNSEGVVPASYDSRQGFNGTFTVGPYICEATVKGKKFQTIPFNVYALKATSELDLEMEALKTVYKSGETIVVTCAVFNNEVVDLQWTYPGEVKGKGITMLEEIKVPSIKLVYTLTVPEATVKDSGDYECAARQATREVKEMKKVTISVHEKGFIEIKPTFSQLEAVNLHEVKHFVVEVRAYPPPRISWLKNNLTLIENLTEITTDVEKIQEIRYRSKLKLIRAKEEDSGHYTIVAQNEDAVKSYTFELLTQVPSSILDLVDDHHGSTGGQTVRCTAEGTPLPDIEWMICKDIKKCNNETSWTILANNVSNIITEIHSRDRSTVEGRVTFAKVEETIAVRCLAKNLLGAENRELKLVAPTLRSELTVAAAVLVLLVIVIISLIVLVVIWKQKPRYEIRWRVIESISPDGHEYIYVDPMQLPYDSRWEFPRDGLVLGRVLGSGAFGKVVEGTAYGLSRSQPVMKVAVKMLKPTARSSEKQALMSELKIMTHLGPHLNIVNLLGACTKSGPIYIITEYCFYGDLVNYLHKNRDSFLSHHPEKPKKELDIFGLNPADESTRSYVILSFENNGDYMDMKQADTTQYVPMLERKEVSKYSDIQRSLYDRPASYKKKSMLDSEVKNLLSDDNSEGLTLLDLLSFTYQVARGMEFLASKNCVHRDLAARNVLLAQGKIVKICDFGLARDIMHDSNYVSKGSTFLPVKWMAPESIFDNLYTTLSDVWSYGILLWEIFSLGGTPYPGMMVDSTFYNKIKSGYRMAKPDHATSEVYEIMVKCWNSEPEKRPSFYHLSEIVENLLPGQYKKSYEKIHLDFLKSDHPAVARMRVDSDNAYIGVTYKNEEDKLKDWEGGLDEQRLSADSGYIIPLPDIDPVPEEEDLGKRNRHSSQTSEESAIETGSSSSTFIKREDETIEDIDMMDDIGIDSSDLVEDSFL
Procedure: as §1

[12] = target: LCK (Homo sapiens, UniProt P06239); test: Kinase panel biochemical assay, LCK; conditions: single concentration of 1 μM, read-out: percent inhibition of kinase
Procedure: as §1

[13] = target: ARAF (Homo sapiens, UniProt P10398); test: Kinase panel biochemical assay, ARAF; conditions: single concentration of 1 μM, read-out: percent inhibition of kinase
Procedure: as §1

[14] = target: PEAK1 (Homo sapiens, UniProt Q9H792); test: Kinase panel biochemical assay, PEAK1; conditions: single concentration of 1 μM, read-out: percent inhibition of kinase
Procedure: as §1

[15] = target: EPHA7 (Homo sapiens, UniProt Q15375); test: Kinase panel biochemical assay, EPHA7; conditions: single concentration of 1 μM, read-out: percent inhibition of kinase
Procedure: as §1

[16] = target: FGFR2 (Homo sapiens, UniProt P21802); test: Kinase panel biochemical assay, FGFR2; conditions: single concentration of 1 μM, read-out: percent inhibition of kinase
Chain of FGFR2 (P21802 22-821): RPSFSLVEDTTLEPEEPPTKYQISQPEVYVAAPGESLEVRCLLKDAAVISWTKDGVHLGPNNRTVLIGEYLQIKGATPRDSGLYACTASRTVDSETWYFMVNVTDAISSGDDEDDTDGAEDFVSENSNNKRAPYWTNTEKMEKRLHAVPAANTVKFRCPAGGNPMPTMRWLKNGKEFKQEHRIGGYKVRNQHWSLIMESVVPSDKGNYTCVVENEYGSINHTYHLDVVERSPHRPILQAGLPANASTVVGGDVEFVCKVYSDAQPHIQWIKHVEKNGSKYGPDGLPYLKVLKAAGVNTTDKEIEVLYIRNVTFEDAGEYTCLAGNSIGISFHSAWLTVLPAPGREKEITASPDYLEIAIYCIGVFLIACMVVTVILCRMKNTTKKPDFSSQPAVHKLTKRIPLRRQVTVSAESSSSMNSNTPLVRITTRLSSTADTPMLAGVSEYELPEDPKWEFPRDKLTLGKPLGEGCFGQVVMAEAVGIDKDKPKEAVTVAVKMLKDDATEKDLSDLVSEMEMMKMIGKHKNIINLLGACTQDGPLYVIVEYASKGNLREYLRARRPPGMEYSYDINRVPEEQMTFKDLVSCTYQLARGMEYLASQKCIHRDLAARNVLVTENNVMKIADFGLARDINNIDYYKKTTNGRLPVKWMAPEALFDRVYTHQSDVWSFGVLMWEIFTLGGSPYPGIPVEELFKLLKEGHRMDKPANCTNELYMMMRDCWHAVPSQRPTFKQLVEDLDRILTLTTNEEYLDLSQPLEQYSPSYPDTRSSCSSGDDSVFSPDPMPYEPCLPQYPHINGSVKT
Procedure: as §1

[17] = target: JAK2 (Homo sapiens, UniProt O60674); test: Kinase panel biochemical assay, JAK2; conditions: single concentration of 1 μM, read-out: percent inhibition of kinase
Procedure: as §1

[18] = target: ZAK (Homo sapiens, UniProt Q9NYL2); test: Kinase panel biochemical assay, ZAK; conditions: single concentration of 1 μM, read-out: percent inhibition of kinase
Procedure: as §1

[19] = target: EPHA8 (Homo sapiens, UniProt P29322); test: Kinase panel biochemical assay, EPHA8; conditions: single concentration of 1 μM, read-out: percent inhibition of kinase
Procedure: as §1

[20] = target: BMX (Homo sapiens, UniProt P51813); test: Kinase panel biochemical assay, BMX; conditions: single concentration of 1 μM, read-out: percent inhibition of kinase
Procedure: as §1

[21] = target: EPHA6 (Homo sapiens, UniProt Q9UF33); test: Kinase panel biochemical assay, EPHA6; conditions: single concentration of 1 μM, read-out: percent inhibition of kinase
Procedure: as §1

[22] = target: YSK4 (Homo sapiens, UniProt Q56UN5); test: Kinase panel biochemical assay, YSK4; conditions: single concentration of 1 μM, read-out: percent inhibition of kinase
Procedure: as §1

[23] = target: T1, GCK; test: Kinase panel biochemical assay, GCK; conditions: single concentration of 1 μM, read-out: percent inhibition of kinase
Procedure: as §1

[24] = target: TXK (Homo sapiens, UniProt P42681); test: Kinase panel biochemical assay, TXK; conditions: single concentration of 1 μM, read-out: percent inhibition of kinase
Chain of TXK (P42681 whole entry): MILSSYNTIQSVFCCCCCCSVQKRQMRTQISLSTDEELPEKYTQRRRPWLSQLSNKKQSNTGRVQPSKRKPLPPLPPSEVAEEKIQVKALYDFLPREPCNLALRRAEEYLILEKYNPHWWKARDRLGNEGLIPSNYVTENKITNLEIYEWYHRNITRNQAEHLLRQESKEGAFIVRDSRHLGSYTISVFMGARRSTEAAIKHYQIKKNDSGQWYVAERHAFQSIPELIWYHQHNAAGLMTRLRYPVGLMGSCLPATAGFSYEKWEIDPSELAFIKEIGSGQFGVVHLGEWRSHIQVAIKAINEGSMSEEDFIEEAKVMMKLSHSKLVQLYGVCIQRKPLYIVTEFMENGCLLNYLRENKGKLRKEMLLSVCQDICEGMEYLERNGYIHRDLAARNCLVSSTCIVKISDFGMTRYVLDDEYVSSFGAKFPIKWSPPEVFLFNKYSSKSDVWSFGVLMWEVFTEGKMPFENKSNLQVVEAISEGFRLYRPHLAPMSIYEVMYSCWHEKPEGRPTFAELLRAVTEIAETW
Procedure: as §1

[25] = target: BRK (Homo sapiens, UniProt Q13882); test: Kinase panel biochemical assay, BRK; conditions: single concentration of 1 μM, read-out: percent inhibition of kinase
Procedure: as §1

[26] = target: HCK (Homo sapiens, UniProt P08631); test: Kinase panel biochemical assay, HCK; conditions: single concentration of 1 μM, read-out: percent inhibition of kinase
Procedure: as §1

[27] = target: FRK (Homo sapiens, UniProt P42685); test: Kinase panel biochemical assay, FRK; conditions: single concentration of 1 μM, read-out: percent inhibition of kinase
Chain of FRK (P42685 whole entry): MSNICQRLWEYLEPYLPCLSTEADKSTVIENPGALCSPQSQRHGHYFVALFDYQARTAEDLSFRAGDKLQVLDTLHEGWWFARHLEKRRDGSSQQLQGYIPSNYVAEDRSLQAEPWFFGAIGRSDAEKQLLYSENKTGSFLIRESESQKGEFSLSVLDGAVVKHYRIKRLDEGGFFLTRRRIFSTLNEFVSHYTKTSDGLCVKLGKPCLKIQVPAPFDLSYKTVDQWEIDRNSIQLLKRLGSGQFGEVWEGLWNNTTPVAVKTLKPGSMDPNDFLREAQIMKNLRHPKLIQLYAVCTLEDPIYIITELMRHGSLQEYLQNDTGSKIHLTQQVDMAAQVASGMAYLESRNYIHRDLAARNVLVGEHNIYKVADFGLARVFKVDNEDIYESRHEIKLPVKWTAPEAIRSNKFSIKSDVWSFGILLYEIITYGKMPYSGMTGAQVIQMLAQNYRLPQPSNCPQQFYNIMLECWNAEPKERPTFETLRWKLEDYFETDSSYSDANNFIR
Procedure: as §1

[28] = target: RIPK3 (Homo sapiens, UniProt Q9Y572); test: Kinase panel biochemical assay, RIPK3; conditions: single concentration of 1 μM, read-out: percent inhibition of kinase
Procedure: as §1

Chain of RAF1 (P04049 whole entry): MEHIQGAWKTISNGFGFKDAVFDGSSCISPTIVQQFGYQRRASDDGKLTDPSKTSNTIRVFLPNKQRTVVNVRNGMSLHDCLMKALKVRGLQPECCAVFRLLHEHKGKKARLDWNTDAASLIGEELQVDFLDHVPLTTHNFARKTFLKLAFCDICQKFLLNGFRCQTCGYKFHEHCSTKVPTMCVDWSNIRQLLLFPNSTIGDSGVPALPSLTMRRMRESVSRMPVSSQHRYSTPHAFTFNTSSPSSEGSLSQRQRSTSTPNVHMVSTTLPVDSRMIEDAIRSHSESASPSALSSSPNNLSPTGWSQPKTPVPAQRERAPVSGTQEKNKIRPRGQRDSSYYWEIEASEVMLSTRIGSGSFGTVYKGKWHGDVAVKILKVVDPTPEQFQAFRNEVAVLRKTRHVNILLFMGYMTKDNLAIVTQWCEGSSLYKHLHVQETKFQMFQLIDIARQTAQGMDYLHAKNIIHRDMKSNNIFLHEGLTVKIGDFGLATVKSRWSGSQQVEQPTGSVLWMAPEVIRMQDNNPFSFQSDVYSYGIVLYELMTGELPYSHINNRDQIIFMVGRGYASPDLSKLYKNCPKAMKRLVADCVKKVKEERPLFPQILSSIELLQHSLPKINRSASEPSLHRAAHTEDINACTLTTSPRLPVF

Cc1ccc(NC(=O)c2cccc(C(F)(F)F)c2)cc1-c1cc2cnc(N)nc2c(=O)[nH]1 [Compound No. 55, N-(3-(2-amino-8-oxo-7,8-dihydropyrido[3,4-d]pyrimidin-6-yl)-4-methylphenyl)-3-(trifluoromethyl)benzamide]
inhibition at 1 µM [1]: ≥ 70%
inhibition at 1 µM [2]: ≥ 70%
inhibition at 1 µM [3]: ≥ 70%
inhibition at 1 µM [4]: ≥ 70%
inhibition at 1 µM [5]: ≥ 70%
inhibition at 1 µM [6]: ≥ 70%
IC50 [7]: 1 to 10 µM
inhibition at 1 µM [8]: ≥ 70%
inhibition at 1 µM [9]: ≥ 70%
inhibition at 1 µM [10]: ≥ 70%
inhibition at 1 µM [11]: ≥ 70%
inhibition at 1 µM [12]: ≥ 70%
inhibition at 1 µM [13]: ≥ 70%
inhibition at 1 µM [14]: ≥ 70%
inhibition at 1 µM [15]: ≥ 70%
inhibition at 1 µM [16]: ≥ 70%
inhibition at 1 µM [17]: ≥ 70%
inhibition at 1 µM [18]: ≥ 70%
inhibition at 1 µM [19]: ≥ 70%
inhibition at 1 µM [20]: ≥ 70%
inhibition at 1 µM [21]: ≥ 70%
inhibition at 1 µM [22]: ≥ 70%
inhibition at 1 µM [23]: ≥ 70%
inhibition at 1 µM [24]: ≥ 70%
inhibition at 1 µM [25]: ≥ 70%
inhibition at 1 µM [26]: ≥ 70%
inhibition at 1 µM [27]: ≥ 70%
inhibition at 1 µM [28]: ≥ 70%
